Target: FKBP12 (Homo sapiens (Human), UniProt P62942)
Assay: SPR kinetics of Compound 2 and Compound 6 binding to immobilized FKBP12 (Example 8)
Details: compound to immobilized FKBP12, 25° C.
Experimental: This protocol utilizes Surface Plasmon Resonance (SPR) as a method to determine kinetics (KD, Ka, Kd) for the binding of Compound 2 and Compound 6 (analyte) to immobilized FKBP12 (ligand).
Compound 2 and Compound 6 in 100% DMSO (in-house), 10×HBS-P+ buffer (GE Healthcare BR-1006-71), Assay buffer (1×HBS-P+ buffer, 1% DMSO), 12×HIS tagged FKBP12 (in-house).
Experiments are performed at 25° C. Stock solution of 12×HIS tagged FKBP12 is diluted to 100 nM in assay buffer (1% DMSO final). Approximately 500-600 RU of FKBP12 is immobilized on one of two flow cells of an activated NTA chip. The second flow cell is not activated as a reference for non-specific interaction of the analyte to the sensor chip. Various concentrations of Compound 2 or Compound 6 (1 nM-1 μM range), serially diluted into the same assay buffer (1% DMSO final), are injected onto the FKBP12 surface and reference surface at a flow rate of 10 μl/min. The surface is regenerated between analyte injections with 350 mM EDTA.
The BiaEvaluation software program is used for data fitting. All data is reference subtracted against both the reference flow cell and a buffer injection. For kinetic analyses, data is locally fit to a 1:1 interaction model.

Sequence of FKBP12 (P62942 whole entry): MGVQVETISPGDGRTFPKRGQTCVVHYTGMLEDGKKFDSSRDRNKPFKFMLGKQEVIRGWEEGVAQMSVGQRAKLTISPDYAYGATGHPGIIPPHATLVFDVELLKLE

Question: For `CC[C@H](Cc1ccccc1)[C@@H]1/C=C/C/C=C/C[C@@H](C)[C@H](O)[C@@H](C)[C@@H]2CC[C@@H](C)C(=O)C(O)(O2)C(=O)N2CCCC[C@H]2C(=O)O1` [Compound 2], which Kd is on record?
Answer: The Kd was 13.2 nM.

Question: And the koff?
Answer: Its koff is 0.000594 s⁻¹.

Question: What about the kon (read-out: Ka) of the same compound?
Answer: Its kon is 45000 M⁻¹ s⁻¹.
